Assay results published in BigSolDB 2.1.

COc1ccccc1N1CCN(CC(O)COc2cccc3ccccc23)CC1 (stereo not given)
solubility (mole fraction)
Conditions | 288.15 K | 293.15 K | 298.15 K | 303.15 K | 308.15 K | 313.15 K | 318.15 K | 323.15 K | 328.15 K
in DMSO | – | 0.0283 | 0.0323 | 0.0367 | 0.0416 | 0.0468 | 0.0527 | 0.059 | 0.066
in ethanol | 0.00142 | 0.00163 | 0.00189 | 0.00216 | 0.00244 | 0.00277 | 0.00314 | 0.00355 | 0.00397
in isopropanol | 0.000714 | 0.000827 | 0.000959 | 0.00111 | 0.00127 | 0.00145 | 0.00165 | 0.00186 | 0.00213
in water | 2.07e-06 | 2.69e-06 | 3.46e-06 | 4.43e-06 | 5.65e-06 | 7.05e-06 | 8.85e-06 | 1.09e-05 | 1.37e-05
